Experimental data reported in the Kinase Knowledgebase extract (Sharma et al. 2016).
Values joined by “and” are separate entries in the source; they are usually repeats but may differ in a detail not shown here. Equal entries are not always repeated.

Assays:
EGFR (Hamster) = EGFR (Hamster) (UniProt P00533); conditions: for IC50: er22
EGFR [1] = molecular target: EGFR (UniProt P00533)
EGFR [2] = molecular target: EGFR (UniProt P00533); remark: listed apart in the source

Sequence of EGFR (P00533 whole entry, looked up): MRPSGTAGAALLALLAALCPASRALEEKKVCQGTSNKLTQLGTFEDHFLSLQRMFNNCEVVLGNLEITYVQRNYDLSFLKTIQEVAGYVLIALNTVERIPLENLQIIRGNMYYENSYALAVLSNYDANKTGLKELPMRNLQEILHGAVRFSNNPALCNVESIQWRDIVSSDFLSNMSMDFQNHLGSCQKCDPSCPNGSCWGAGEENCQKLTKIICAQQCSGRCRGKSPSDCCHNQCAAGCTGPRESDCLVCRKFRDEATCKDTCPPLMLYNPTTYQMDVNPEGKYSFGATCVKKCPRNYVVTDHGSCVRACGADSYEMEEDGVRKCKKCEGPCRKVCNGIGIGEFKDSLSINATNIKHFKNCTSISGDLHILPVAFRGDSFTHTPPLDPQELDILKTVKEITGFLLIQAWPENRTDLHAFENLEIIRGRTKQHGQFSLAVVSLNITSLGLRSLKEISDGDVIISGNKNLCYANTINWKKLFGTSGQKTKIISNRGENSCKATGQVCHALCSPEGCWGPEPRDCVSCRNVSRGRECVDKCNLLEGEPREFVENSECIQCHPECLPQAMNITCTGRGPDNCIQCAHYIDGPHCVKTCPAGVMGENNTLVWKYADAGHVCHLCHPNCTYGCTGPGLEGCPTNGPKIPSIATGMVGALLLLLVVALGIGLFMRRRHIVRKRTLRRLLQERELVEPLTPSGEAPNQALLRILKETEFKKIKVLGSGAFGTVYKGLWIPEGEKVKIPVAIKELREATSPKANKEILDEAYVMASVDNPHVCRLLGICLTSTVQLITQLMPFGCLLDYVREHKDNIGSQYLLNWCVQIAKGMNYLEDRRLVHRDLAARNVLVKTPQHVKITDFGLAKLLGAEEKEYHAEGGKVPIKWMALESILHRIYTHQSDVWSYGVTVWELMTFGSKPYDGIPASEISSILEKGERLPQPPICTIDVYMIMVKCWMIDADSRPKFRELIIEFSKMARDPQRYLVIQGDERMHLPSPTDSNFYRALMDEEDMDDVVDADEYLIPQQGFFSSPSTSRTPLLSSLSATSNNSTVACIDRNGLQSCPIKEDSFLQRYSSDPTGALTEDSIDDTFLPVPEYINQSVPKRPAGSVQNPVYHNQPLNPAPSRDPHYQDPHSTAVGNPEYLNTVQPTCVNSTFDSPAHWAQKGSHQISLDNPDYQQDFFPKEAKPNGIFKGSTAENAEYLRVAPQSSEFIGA
Sequence of EGFR (Hamster) (P00533 whole entry, looked up): as above

| Structure (SMILES) | IC50 (EGFR (Hamster)) | IC50 (EGFR [1]) | IC50 (EGFR [2]) [nM] | inhibition (EGFR [1]; concentration not given here) [%] | inhibition (EGFR (Hamster); er22, dose or concentration not given here) [%] |
| --- | --- | --- | --- | --- | --- |
| O=C(OCCCc1ccccc1)c1cc(NCc2cc(O)ccc2O)ccc1O | 2.25 µM | – | – | – | – |
| CC(=O)c1cccc(NCc2cc(O)ccc2O)c1 | 12 µM | 1300 nM | – | – | – |
| Oc1ccc(O)c(CNc2cccc(COCc3ccccc3)c2)c1 | 2.5 µM | 950 nM | – | – | – |
| COc1ccc(NCc2cc(O)ccc2O)cc1COCC(C)CC(C)(C)C (stereo not given) | 0.8 µM | 20000 nM | – | – | – |
| CC(COCc1cccc(NCc2cc(O)ccc2O)c1)CC(C)(C)C (stereo not given) | 2.5 µM | > 10000 nM | – | – | – |
| O=C(Cc1ccccc1)c1cc(NCc2cc(O)ccc2O)ccc1O | 10 µM | 60 nM | – | – | – |
| O=C(Cc1ccccc1)c1cccc(NCc2cc(O)ccc2O)c1O | 4.8 µM | 2000 nM | – | – | – |
| Oc1ccc(O)c(CNc2ccc(O)c(C(=S)NCc3ccccc3)c2)c1 | > 5 µM | 150 nM | – | – | – |
| O=C(c1ccccc1)c1cccc(NCc2cc(O)ccc2O)c1 | 5 µM | 800 nM | – | – | – |
| Oc1ccc(O)c(CNc2ccc(O)c(COc3ccccc3)c2)c1 | > 10 µM | 700 nM | – | – | – |
| CC(C)c1ccc(NC(=O)c2cc(NCc3cc(O)ccc3O)ccc2O)cc1 | > 10 µM | 150 nM | – | – | – |
| CC(CC(=O)c1cc(NCc2cc(O)ccc2O)ccc1O)CC(C)(C)C (stereo not given) | 2 µM | 370 nM | – | – | – |
| CC(CNC(=O)c1cc(NCc2cc(O)ccc2O)ccc1O)CC(C)(C)C (stereo not given) | 6 µM | 800 nM | – | – | – |
| CC(NC(=O)c1cc(NCc2cc(O)ccc2O)ccc1O)c1ccccc1 (stereo not given) | 10 µM | 70 nM | – | – | – |
| CN(Cc1ccccc1)C(=O)c1cc(NCc2cc(O)ccc2O)ccc1O | > 10 µM | 550 nM | – | – | – |
| COC(=O)[C@H](Cc1ccccc1)NC(=O)c1cc(NCc2cc(O)ccc2O)ccc1O | 10 µM | 540 nM | – | – | – |
| Oc1ccc(O)c(CNc2cccc(C(O)c3ccccc3)c2)c1 (stereo not given) | 20 µM | 1800 nM | – | – | – |
| O=C(NCc1ccccc1)c1cc(NCc2cc(O)ccc2O)ccc1O | 6 µM and 7 µM | 20 nM and 38 nM | 40 | – | – |

| Structure (SMILES) | IC50 (EGFR (Hamster)) | IC50 (EGFR [1]) | IC50 (EGFR [2]) [nM] | inhibition (EGFR [1]; concentration not given here) [%] | inhibition (EGFR (Hamster); er22, dose or concentration not given here) [%] |
| --- | --- | --- | --- | --- | --- |
| O=C(CCc1ccccc1)c1c(O)cccc1NCc1cc(O)ccc1O | 4 µM | 5000 nM | – | – | – |
| CC(CC(=O)c1cccc(NCc2cc(O)ccc2O)c1O)CC(C)(C)C (stereo not given) | – | – | – | 24 | – |
| CC(COCc1cc(NCc2cc(O)ccc2O)ccc1O)CC(C)(C)C (stereo not given) | 2 µM | 10000 nM | – | – | – |
| CCCCCCCCCCCCCCCCC(=O)Oc1ccc(NCc2cc(O)ccc2O)cc1C(=O)NCc1ccccc1 | – | 1500 nM | – | – | 20 |
| CC(CSCc1cc(NCc2cc(O)ccc2O)ccc1O)CC(C)(C)C (stereo not given) | 5 µM | 1900 nM | – | – | – |
| Oc1ccc(O)c(CNc2ccc(O)c(C(O)c3ccccc3)c2)c1 (stereo not given) | 8.2 µM | 1300 nM | – | – | – |
| Oc1ccc(O)c(CNc2ccc(O)c(COCc3ccccc3)c2)c1 | > 10 µM | 800 nM | – | – | – |
| O=C(CCc1ccccc1)c1cc(NCc2cc(O)ccc2O)ccc1O | 6.5 µM | 160 nM | – | – | – |
| CC(COC(=O)c1cc(NCc2cc(O)ccc2O)ccc1O)CC(C)(C)C (stereo not given) | – | – | ≥ 10000 | – | – |
| O=C(Nc1ccccc1)c1cc(NCc2cc(O)ccc2O)ccc1O | 10 µM | 20 nM | 90 | – | – |
| CC(C)(C)CC(C)(C)NC(=O)c1cc(NCc2cc(O)ccc2O)ccc1O | 9 µM | 220 nM | 300 | – | – |
| OCc1cc(NCc2cc(O)ccc2O)ccc1O | 12 µM | 2000 nM | – | – | – |
| O=C(c1ccccc1)c1cc(NCc2cc(O)ccc2O)ccc1O | 10 µM | 300 nM | – | – | – |
| CC(O)c1cccc(NCc2cc(O)ccc2O)c1 (stereo not given) | > 20 µM | 1600 nM | – | – | – |
| N#Cc1cc(NCc2cc(O)ccc2O)ccc1O | > 10 µM | 190 nM | – | – | – |
| CC(C)c1ccccc1NC(=O)c1cc(NCc2cc(O)ccc2O)ccc1O | > 10 µM | 120 nM | – | – | – |
| CC(=O)c1cc(NCc2cc(O)ccc2O)ccc1O | > 10 µM | 340 nM | – | – | – |
